The values that follow are results of earlier work, collected in patent US5006510A, “Method for relieving chronic pain with a somatostatin analog composition” (priority 1989, dated 1991).

The conditions of data set [1]: applied topically with N-decylmethylsulfoxide; mouse skin.
For data set [2] the following is noted: applied topically with N-decylmethylsulfoxide; human skin.

SMILES strings stand for the structures. Where two headings read alike, the source gives them in different places.

For the compound `C[C@@H](O)[C@@H]1NC(=O)[C@H](CCCCN)NC(=O)[C@@H](Cc2c[nH]c3ccccc23)NC(=O)[C@H](Cc2ccccc2)NC(=O)[C@@H](NC(=O)[C@H](N)Cc2ccccc2)CSSC[C@@H](C(=O)N[C@H](CO)[C@@H](C)O)NC1=O` [octreotide, octreotide acetate], the skin permeation result was “permeates both human and mouse skin” in data set [1]; “permeates both human and mouse skin” in data set [2].
